Values of other authors in US20240277651A1, “MIXED GLYCEROL ESTER COMPOSITION” (priority 2021, published 2024).

Test system: pathogenic, gram-positive bacteria
Conditions: Skrivanova et al, Veterinarni Medicina, 51, 2006

CCCCCCCCCCCC(=O)OCC(O)CO (stereo not shown) [monolaurin]
Inhibitory action on pathogenic, gram-positive bacteria: inhibitory action
